Assay results as given in US20220395553A1, “CXCR4 ANTAGONIST PEPTIDES” (COHBAR, INC., priority 2019, published 2022).
Square brackets hold non-standard residues; d marks the D form. Peptide text beside a SMILES is read from it.

Key:
human CXCR4 [1] = biological target: T1, human CXCR4 (Homo sapiens, UniProt P61073); assay: IC50 for inhibition of CXCR4 activation, β-Arrestin recruitment (Example 22); format: cell-based; parameters: host or cells: C2C12 (mouse myoblast) CXCR4 β-Arrestin PathHunter cell line
T1 sequence (P61073 whole entry): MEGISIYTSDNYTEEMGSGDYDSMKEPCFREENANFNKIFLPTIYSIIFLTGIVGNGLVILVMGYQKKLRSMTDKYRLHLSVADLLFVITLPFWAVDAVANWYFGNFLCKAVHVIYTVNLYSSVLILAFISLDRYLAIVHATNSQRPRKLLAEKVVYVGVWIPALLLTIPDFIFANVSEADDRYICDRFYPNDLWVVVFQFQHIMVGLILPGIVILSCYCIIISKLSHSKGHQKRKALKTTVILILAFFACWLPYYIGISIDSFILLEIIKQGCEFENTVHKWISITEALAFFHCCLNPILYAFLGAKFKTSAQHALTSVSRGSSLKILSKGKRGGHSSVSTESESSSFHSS
Protocol: The assay was run with the DiscoverX protocol. β-Arrestin recruitment assays were performed by Eurofins-DiscoverX (Fremont, Calif.) using C2C12 CXCR4 β-Arrestin cell line (co-expressing ProLink tagged human CXCR4 and Enzyme Acceptor tagged β-Arrestin) and PathHunter detection kit. Peptides were initially prepared as 1 mM stock in H2O and tested in ten (10)-step concentration response curves using 3-fold dilution steps with 1 μM as highest concentration; a concentration range of 1 μM-0.05 nM was tested. C2C12 CXCR4 β-Arrestin cells were seed onto 384-well plates in standard medium. […] At the end of the 90 min incubation period, β-Arrestin recruitment in response to various treatments was quantified using a chemiluminescent complementation reporter assay to measure association of tagged human […] (ProLink tag) and tagged β-Arrestin (Enzyme Acceptor tag).

human CXCR4 [2] = biological target: T1, human CXCR4; assay: CXCR4/CXCL12 binding, HTRF format, single concentration (Example 23); parameters: host or cells: HEK293 (Tag-lite CXCR4 cells, frozen aliquots, transient expression); conditions: 15 nM CXCR4R fluorescent probe, 3 hours, HEK293 Tag-lite CXCR4 cells
Method in brief: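 Tag-lite CXCR4 cells were exposed to peptide at 400 nM final with 15 nM (EC80) fluorescent CXCR4 probe for 3 h at room temperature. HTRF was read, and the 665/620 nm ratio ×10,000 measured probe bound to terbium-labelled receptor.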

[3] = test system: CXCR4/CXCL12 induced p-MEK; assay: CXCR4/CXCL12 induced p-MEK in Jurkat cells (ELISA); format: cell-based, human; conditions: 5 nM CXCL12, 5 min
Protocol: The assay was performed following a protocol similar to that described by Peng, et al., Mol Cancer Ther., 14 480-90 (2015), incorporated herein by reference. […] Jurkat cells were resuspended in standard growth media (RPMI+GlutaMax media; Gibco/Thermo Fisher Scientific; Gaithersburg, Md.) containing 10% FBS and 1% penicillin/streptomycin. Assays were performed using fresh or conditioned media (media cultured overnight in presence of Jurkat cells) to resuspend cells at density of 2×10^6 cells/ml and […] of cell suspension was immediately placed in 1.7 ml microfuge tubes. […] Following the 5 min incubation, cells were centrifuged at 1000×g for 4 min at 4° C. The supernatant was removed and the cells were rinsed with 1 ml of HBSS containing calcium and magnesium. The HBSS was removed and the cells were immediately lysed in 150 l of lysis buffer included with Phospho-MEK1 (Ser217/221) Sandwich ELISA kit (Cell Signaling Technology; Danvers, Mass.); lysis buffer was supplemented with 1 m M PMSF (Millipore-Sigma; Saint Louis, Mo.) and Halt protease/phosphatase inhibitor cocktail (Thermo-Fisher; Waltham, Mass.) prior to use. The samples were then placed on ice for 10 min and vortexed periodically. Following the lysis step, the samples were centrifuged at 12,500 rpm for 10 min at 4° C. p-MEK expression in each of the samples was then measure using Phospho-MEK1 (Ser217/221) Sandwich ELISA kit according to manufacturer's instructions. Absorbance was measured using a Cytation 3 plate reader at […] (BioTek; Winooski, Vt.).

IC50 (human CXCR4 [1]) [nM]	Percent Inhibition of CXCR4/CXCL12 Binding (400 nM peptide) (human CXCR4 [2]) [%]	SMILES	Percent Inhibition of CXCR4/CXCL12 Induced p-MEK (100 nM Test Article) [3] [%]	Percent Inhibition of CXCR4/CXCL12 Induced p-MEK (1 μM Test Article) [3] [%]
5	76	CC(C)C[C@H](NC(=O)[C@H](CO)NC(=O)[C@H](CO)NC(=O)[C@H](CCCNC(=N)N)NC(=O)[C@@H](C)NC(=O)[C@@H](NC(=O)[C@H](Cc1c[nH]cn1)NC(=O)[C@H](Cc1c[nH]cn1)NC(=O)[C@H](Cc1ccc(O)cc1)NC(=O)[C@H](CCCNC(=N)N)NC(=O)[C@H](CCC(=O)O)NC(=O)[C@@H](N)CC(C)C)[C@@H](C)O)C(=O)N[C@@H](CCCNC(=N)N)C(=O)N1CCC[C@H]1C(=O)N[C@@H](Cc1ccc(O)cc1)C(=O)N[C@H](C(=O)N[C@@H](CCCCN)C(=O)O)[C@@H](C)O [compound 40] (H-LERYHHT[dA]RSSLRPYTK-OH; N-terminus and C-terminus assumed)	33	94
> 1000	−11	CC(C)C[C@H](NC(=O)[C@H](CO)NC(=O)[C@H](CO)NC(=O)[C@H](CCCNC(=N)N)NC(=O)[C@@H](NC(=O)[C@H](CO)NC(=O)[C@H](Cc1c[nH]cn1)NC(=O)[C@H](Cc1c[nH]cn1)NC(=O)[C@H](Cc1ccc(O)cc1)NC(=O)[C@H](CC(=O)O)NC(=O)[C@H](CCCNC(=N)N)NC(=O)[C@@H](N)CC(C)C)C(C)C)C(=O)N[C@@H](CCCNC(=N)N)C(=O)N1CCC[C@H]1C(=O)N[C@@H](Cc1ccc(O)cc1)C(=O)N[C@H](C(=O)N[C@@H](CCCCN)C(=O)O)[C@@H](C)O [compound 36] (H-LRDYHHSVRSSLRPYTK-OH; N-terminus and C-terminus assumed)	22	−5
4	77	CC(C)C[C@H](NC(=O)[C@@H](NC(=O)[C@H](CO)NC(=O)[C@H](CCCNC(=N)N)NC(=O)[C@@H](C)NC(=O)[C@H](CO)NC(=O)[C@H](Cc1c[nH]cn1)NC(=O)[C@H](Cc1c[nH]cn1)NC(=O)[C@H](Cc1ccc(O)cc1)NC(=O)[C@H](CCCNC(=N)N)NC(=O)[C@H](CCC(=O)O)NC(=O)[C@@H](N)CC(C)C)[C@@H](C)O)C(=O)N[C@@H](CCCNC(=N)N)C(=O)N1CCC[C@H]1C(=O)N[C@@H](Cc1ccc(O)cc1)C(=O)N[C@H](C(=O)N[C@@H](CCCCN)C(=O)O)[C@@H](C)O [compound 77] (H-LERYHHS[dA]RSTLRPYTK-OH; N-terminus and C-terminus assumed)	7	68
8	54	CC(C)C[C@H](NC(=O)[C@H](CO)NC(=O)[C@H](CO)NC(=O)[C@H](CCCNC(=N)N)NC(=O)[C@@H](C)NC(=O)[C@H](CO)NC(=O)[C@H](Cc1c[nH]cn1)NC(=O)[C@H](Cc1c[nH]cn1)NC(=O)[C@H](Cc1ccc(O)cc1)NC(=O)[C@H](CCCNC(=N)N)NC(=O)[C@H](CCC(=O)O)NC(=O)[C@@H](N)CC(C)C)C(=O)N[C@@H](CCCNC(=N)N)C(=O)N1CCC[C@H]1C(=O)N[C@@H](Cc1ccccc1)C(=O)N[C@H](C(=O)N[C@@H](CCCCN)C(=O)O)[C@@H](C)O [compound 61] (H-LERYHHS[dA]RSSLRPFTK-OH; N-terminus and C-terminus assumed)	15	46
14	3	CC(C)C[C@H](NC(=O)[C@H](CO)NC(=O)[C@H](CO)NC(=O)[C@H](CCCNC(=N)N)NC(=O)[C@@H](NC(=O)[C@H](CO)NC(=O)[C@H](Cc1c[nH]cn1)NC(=O)[C@H](Cc1c[nH]cn1)NC(=O)[C@H](Cc1ccc(O)cc1)NC(=O)[C@H](CCCNC(=N)N)NC(=O)[C@H](CCCNC(=N)N)NC(=O)[C@@H](N)CC(C)C)C(C)C)C(=O)N[C@@H](CC(=O)O)C(=O)N1CCC[C@H]1C(=O)N[C@@H](Cc1ccc(O)cc1)C(=O)N[C@H](C(=O)N[C@@H](CCCCN)C(=O)O)[C@@H](C)O [compound 67] (H-LRRYHHSVRSSLDPYTK-OH; N-terminus and C-terminus assumed)	−8	42

The next lines start with the compound.

SMILES	IC50 (human CXCR4 [1]) [nM]	Percent Inhibition of CXCR4/CXCL12 Binding (400 nM peptide) (human CXCR4 [2]) [%]	Percent Inhibition of CXCR4/CXCL12 Induced p-MEK (100 nM Test Article) [3] [%]	Percent Inhibition of CXCR4/CXCL12 Induced p-MEK (1 μM Test Article) [3] [%]
CC(C)C[C@H](NC(=O)[C@H](CO)NC(=O)[C@H](CO)NC(=O)[C@H](CCCNC(=N)N)NC(=O)[C@@H](C)NC(=O)[C@H](CO)NC(=O)[C@H](Cc1c[nH]cn1)NC(=O)[C@H](Cc1c[nH]cn1)NC(=O)[C@H](Cc1ccccc1)NC(=O)[C@H](CCCNC(=N)N)NC(=O)[C@H](CCC(=O)O)NC(=O)[C@@H](N)CC(C)C)C(=O)N[C@@H](CCCNC(=N)N)C(=O)N1CCC[C@H]1C(=O)N[C@@H](Cc1ccc(O)cc1)C(=O)N[C@H](C(=O)N[C@@H](CCCCN)C(=O)O)[C@@H](C)O [compound 55] (H-LERFHHS[dA]RSSLRPYTK-OH; N-terminus and C-terminus assumed)	4	56	16	72
CC(C)C[C@H](NC(=O)[C@H](CO)NC(=O)[C@H](CO)NC(=O)[C@H](CCCNC(=N)N)NC(=O)[C@@H](NC(=O)[C@H](CO)NC(=O)[C@H](Cc1c[nH]cn1)NC(=O)[C@H](Cc1c[nH]cn1)NC(=O)[C@H](Cc1ccc(O)cc1)NC(=O)[C@H](CCCNC(=N)N)NC(=O)[C@H](CCCNC(=N)N)NC(=O)[C@@H](N)CC(C)C)C(C)C)C(=O)N[C@@H](CCCNC(=N)N)C(=O)N1CCC[C@H]1C(=O)N[C@@H](Cc1ccccc1)C(=O)N[C@H](C(=O)N[C@@H](CCCCN)C(=O)O)[C@@H](C)O [compound 59] (H-LRRYHHSVRSSLRPFTK-OH; N-terminus and C-terminus assumed)	3	−3	43	93
CC(C)C[C@H](NC(=O)[C@H](CO)NC(=O)[C@H](CO)NC(=O)[C@H](CCCNC(=N)N)NC(=O)[C@@H](C)NC(=O)[C@H](CO)NC(=O)[C@H](Cc1c[nH]cn1)NC(=O)[C@H](Cc1c[nH]cn1)NC(=O)[C@H](Cc1ccc(O)cc1)NC(=O)[C@H](CCCNC(=N)N)NC(=O)[C@H](CCC(=O)O)NC(=O)[C@@H](N)CC(C)C)C(=O)N[C@@H](CCCNC(=N)N)C(=O)NCC(=O)N[C@@H](Cc1ccc(O)cc1)C(=O)N[C@H](C(=O)N[C@@H](CCCCN)C(=O)O)[C@@H](C)O [compound 81] (H-LERYHHS[dA]RSSLRGYTK-OH; N-terminus and C-terminus assumed)	3	81	−16	20
CC(C)C[C@H](NC(=O)[C@H](CO)NC(=O)[C@H](CO)NC(=O)[C@H](CCCNC(=N)N)NC(=O)[C@@H](C)NC(=O)[C@H](CO)NC(=O)[C@H](Cc1c[nH]cn1)NC(=O)[C@H](CC(N)=O)NC(=O)[C@H](Cc1ccc(O)cc1)NC(=O)[C@H](CCCNC(=N)N)NC(=O)[C@H](CCC(=O)O)NC(=O)[C@@H](N)CC(C)C)C(=O)N[C@@H](CCCNC(=N)N)C(=O)N1CCC[C@H]1C(=O)N[C@@H](Cc1ccc(O)cc1)C(=O)N[C@H](C(=O)N[C@@H](CCCCN)C(=O)O)[C@@H](C)O [compound 43] (H-LERYNHS[dA]RSSLRPYTK-OH; N-terminus and C-terminus assumed)	14	53	5	40
